Data published in patent US6989384B2, “Antipicornaviral compounds and compositions, their pharmaceutical uses, and materials for their synthesis” (Agouron Pharmaceuticals, Inc., priority 2000, dated 2006).
Where two headings read alike, the source gives them in different places.

Key:
[1] = molecular target: T1, rhinovirus 3C protease from HRV serotype-14 (Human rhinovirus 14, UniProt P03303); test: Inhibition of rhinovirus 3C protease activity (FRET assay), HRV-14; format: biochemical; conditions: read-out: Protease Inhibition kobs/I
T1 construct: Recombinant rhinovirus 3C proteases; made in house
Method: (§1) Stock solutions (50 mM, in DMSO) of various compounds were prepared; dilutions were in the same solvent. Recombinant rhinovirus 3C proteases (see Birch et al., “Purification of recombinant human rhinovirus 14 3C protease expressed in Escherichia coli,” Protein Expr. Pur. 1995, 6(5), 609–618) from serotypes 14, 16, and 2 were prepared by the following standard chromatographic procedures: (1) ion exchange using Q Sepharose Fast Flow from Pharmacia; (2) affinity chromatography using Affi-Gel Blue from Biorad; and (3) sizing using Sephadex G-100 from Pharmacia. Each assay sample contained 2% DMSO, 50 mM tris pH 7.6, 1 mM EDTA, a test compound at the indicated concentration, approximately 1 μM substrate, and 50–100 nM protease. The kobs/I values were obtained from reactions initiated by addition of enzyme rather than substrate. RVP activity was measured in the fluorescence resonance energy transfer assay. The substrate was (N-terminal) DABCYL-(Gly-Arg-Ala-Val-Phe-Gln-Gly-Pro-Val-Gly)-EDANS. In the uncleaved peptide, the EDANS fluorescence was quenched by the proximal DABCYL group. When the peptide was cleaved, the quenching was relieved, and activity was measured as an increase in fluorescence signal. In the Table, unless otherwise indicated, all data are for rhinovirus 3C protease from HRV serotype-14 (produced from the infectious cDNA clone constructed by Dr. Robert Rueckert, Institute for Molecular Virology, University of Wisconsin, Madison, Wis.). The data in the column designated kobs/[I] were measured from progress curves in enzyme start experiments.

[2] = molecular target: T2, rhinovirus 3C protease (HRV-2) (Human rhinovirus 2, UniProt P04936); test: Inhibition of rhinovirus 3C protease activity (FRET assay), HRV-2; format: biochemical; conditions: read-out: Protease Inhibition kobs/I
T2 construct: Recombinant rhinovirus 3C proteases; made in house
Method: as §1

HRV-14 = test: Antirhinoviral H1-HeLa cell culture assay (cell protection, XTT), HRV-14; format: cell-based, human rhinovirus; conditions: read-out: Cell Protection EC50
Method: (§2) In this cell protection assay, the ability of compounds to protect cells against HRV infection was measured by the XTT dye reduction method, which is described in Weislow et al., J. Natl. Cancer Inst. 1989, vol. 81, 577–586.
(§3) H1-HeLa cells were infected with HRV-14 at a multiplicity of infection (m.o.i.) of 0.13 (virus particles/cell) or mock-infected with medium only. Infected or mock-infected cells were resuspended at 8×10^5 cells per mL, and incubated with appropriate concentrations of the compounds to be tested. Two days later, XTT/PMS was added to test plates and the amount of formazan produced was quantified spectrophotometrically at 450/650 nm. The EC50 value was calculated as the concentration of compound that increased the percentage of formazan production in compound-treated, virus-infected cells to 50% of that produced by compound-free, mock-infected cells. The 50% cytotoxic dose (CC50) was calculated as the concentration of compound that decreased the percentage of formazan produced in compound-treated, mock-infected cells to 50% of that produced by compound-free, mock-infected cells.
(§4) All strains of human rhinovirus (HRV) for use in this assay were purchased from American Type Culture Collection (ATCC), except for HRV serotype-14 (produced from the infectious cDNA clone constructed by Dr. Robert Rueckert, Institute for Molecular Virology, University of Wisconsin, Madison, Wis.). HRV stocks were propagated and viral assays were performed in H1-HeLa cells (ATCC). Cells were grown in minimal essential medium with 10% fetal bovine serum, available from Life Technologies (Gaithersburg, Md.).
(§5) The compounds were tested against control compounds WIN 51711, WIN 52084, and WIN 54954 (obtained from Sterling-Winthrop Pharmaceuticals), Pirodavir (obtained from Janssen Pharmaceuticals), and Pleconaril (prepared according to the method described in Diana et al., J. Med. Chem 1995, vol. 38, 1355). Antiviral data obtained for the test compounds are shown in the Table, where all data are for HRV serotype-14 unless otherwise noted in parentheses.

HRV-1A = test: Antirhinoviral H1-HeLa cell culture assay (cell protection, XTT), HRV-1A; format: cell-based, human rhinovirus; conditions: Rhinovirus A, HRV1A, 48 h, H1-HeLa cells, two days
Method: as §2, §3, §4, §5

HRV-10 = test: Antirhinoviral H1-HeLa cell culture assay (cell protection, XTT), HRV-10; format: cell-based; conditions: Human rhinovirus sp., HRV10, 48 h, HRV-10, H1-HeLa cells, two days
Method: as §2, §3, §4, §5

HRV-2 = test: Antirhinoviral H1-HeLa cell culture assay (cell protection, XTT), HRV-2; format: cell-based, human rhinovirus; conditions: Rhinovirus A, HRV2, 48 h, HRV-2, H1-HeLa cells, two days
Method: as §2, §3, §4, §5

[3] = Cytotoxicity in mock-infected H1-HeLa cells (XTT); format: cell-based; conditions: human, two days, read-out: Toxicity CC50
Method: as §2, §3, §4

H1-HeLa cells = test: Cytotoxicity in mock-infected H1-HeLa cells (XTT); format: cell-based; conditions: two days, read-out: Toxicity CC50
Method: as §2, §3, §4

[4] = Rhinovirus B, HRV14, H1-HeLa, 48 h
[5] = HRV-14 3C protease, progress curves, enzyme start
[6] = Rhinovirus B, HRV14, 48 h, HRV-14, H1-HeLa cells, XTT, two days
[7] = HRV-14, H1-HeLa cells, XTT, two days

T2 sequence (P04936 1508-1690): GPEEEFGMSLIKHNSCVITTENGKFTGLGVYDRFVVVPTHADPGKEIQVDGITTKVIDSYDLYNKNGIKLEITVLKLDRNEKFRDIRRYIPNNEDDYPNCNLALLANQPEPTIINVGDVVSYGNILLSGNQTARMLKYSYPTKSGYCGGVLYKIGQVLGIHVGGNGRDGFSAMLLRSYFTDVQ
T1 sequence (P03303 1538-1719): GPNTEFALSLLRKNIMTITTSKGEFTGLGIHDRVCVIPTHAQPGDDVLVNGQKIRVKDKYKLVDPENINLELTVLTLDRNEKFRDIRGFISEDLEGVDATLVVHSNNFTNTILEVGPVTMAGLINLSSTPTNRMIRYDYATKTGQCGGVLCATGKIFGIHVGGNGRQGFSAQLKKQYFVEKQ

Compound | kinact/KI [1] | EC50 (HRV-14; [4]) | CC50 at 2 days [3] | kinact/KI [1, 5] | EC50 (HRV-14; [6]) | other results
CCOC(=O)/C=C/[C@H](C[C@@H]1CCNC1=O)NC(=O)c1ccc2ccc(Br)cc2c1 [Compound 53, 4S-[(7-Bromo-naphthalene-2-carbonyl)-amino]-5-(2-oxo-pyrrolidin-3S-yl)-pent-2-enoic acid ethyl ester] | 31400 M⁻¹ s⁻¹ | 184 nM | 56.2 µM |  |  | kinact/KI [2]: 385 M⁻¹ s⁻¹; EC50 (HRV-1A): 4.18 µM; EC50 (HRV-10): 546 nM; EC50 (HRV-2): 422 nM
CCOC(=O)/C=C/[C@H](C[C@@H]1CCNC1=O)NC(=O)c1ccc2ccc(O)cc2c1 [Compound 54, 4S-[(7-Hydroxy-naphthalene-2-carbonyl)-amino]-5-(2-oxo-pyrrolidin-3S-yl)-pent-2-enoic acid ethyl ester] |  |  |  | 220 M⁻¹ s⁻¹ |  | kinact/KI ([2]; HRV-2 3C protease, progress curves, enzyme start): 35 M⁻¹ s⁻¹
CCOC(=O)/C=C/[C@H](CCC(N)=O)NC(=O)c1cc2ccccc2s1 [Compound 26, 4S-[(benzo[b]thiophene-2-carbonyl)-amino]-6-carbamoyl-hex-2-enoic acid ethyl ester] |  |  | > 100 µM | 95 M⁻¹ s⁻¹ | 1500 nM | EC50 (HRV-1A): 59 µM; EC50 (HRV-10): 12400 nM
Cc1cc(CCCCCOc2c(Cl)cc(C3=NCCO3)cc2Cl)on1 [WIN 54954, reference compound] |  |  |  |  |  | EC50 (HRV-14; [7]): 2130 nM; CC50 (H1-HeLa cells): > 63 µM
CCOC(=O)/C=C/[C@H](C[C@@H]1CCNC1=O)NC(=O)C1=Cc2cc(Br)ccc2OC1 [Compound 52, 4S-[(6-Bromo-2H-chromene-3-carbonyl)-amino]-5-(2-oxo-pyrrolidin-3S-yl)-pent-2-enoic acid ethyl ester] | 25000 M⁻¹ s⁻¹ | 175 nM | 65 µM |  |  | kinact/KI [2]: 372 M⁻¹ s⁻¹; EC50 (HRV-1A): 5.07 µM; EC50 (HRV-10): 546 nM
Cc1cc(CCCCCCCOc2ccc(C3=NCCO3)cc2)on1 [WIN 51711, reference compound] |  |  |  |  |  | EC50 (HRV-14; [7]): 780 nM; CC50 (H1-HeLa cells): > 60 µM
CCOC(=O)/C=C/[C@H](C[C@@H]1CCNC1=O)NC(=O)/C=C/c1cc2c(cc1Br)OCO2 [Compound 49, 4S-[3-(6-Bromo-benzo[1,3]dioxol-5-yl)-acryloylamino]-5-(2-oxo-pyrrolidin-3S-yl)-pent-2-enoic acid ethyl ester] | 14400 M⁻¹ s⁻¹ | 490 nM | > 100 µM |  |  | EC50 (HRV-1A): 2.51 µM; EC50 (HRV-10): 316 nM
CCOC(=O)/C=C/[C@H](C[C@@H]1CCNC1=O)NC(=O)c1ccc2ccccc2c1 [Compound 1, 4S-[(naphthalene-2-carbonyl)-amino]-5-(2-oxo-pyrrolidin-3S-yl)-pent-2-enoic acid ethyl ester] | 1090 M⁻¹ s⁻¹ | 150 nM | > 100 µM |  |  | kinact/KI [2]: 110 M⁻¹ s⁻¹; EC50 (HRV-2): 1350 nM
CCOC(=O)/C=C/[C@H](CCC(N)=O)NC(=O)c1ccccc1 [Compound 34] |  |  | > 100 µM | 10 M⁻¹ s⁻¹ | > 100000 nM | 
CCOC(=O)/C=C/[C@H](C[C@@H]1CCNC1=O)NC(=O)c1cc(-c2ccccc2)oc1C [Compound 45, 4S-[(2-Methyl-5-phenyl-furan-3-carbonyl)-amino]-5-(2-oxo-pyrrolidin-3S-yl)-pent-2-enoic acid ethyl ester] | 4740 M⁻¹ s⁻¹ | 1940 nM | > 100 µM |  |  | 
CCOC(=O)/C=C/[C@H](C[C@@H]1CCNC1=O)NC(=O)Nc1cc(OC)cc(OC)c1 [Compound 57, 4S-[3-(3,5-dimethoxy-phenyl)ureido]-5-(2-oxo-pyrrolidin-3S-yl)-pent-2-enoic acid ethyl ester] | 388 M⁻¹ s⁻¹ | > 10000 nM | > 10 µM |  |  | 
CCOC(=O)/C=C/[C@H](C[C@@H]1CCNC1=O)NC(=O)/C=C/c1ccc([N+](=O)[O-])cc1 [Compound 15, 4S-[3-(4-nitro-phenyl)-acryloylamino]-5-(2-oxo-pyrrolidin-3S-yl)-pent-2-enoic acid ethyl ester] | 2020 M⁻¹ s⁻¹ | 1530 nM | > 10 µM |  |  | 
CCOC(=O)/C=C/[C@H](CCC(N)=O)NC(=O)c1ccccc1CCc1ccccc1 [Compound 37, 6-carbamoyl-4S-(2-phenethyl-benzoylamino)-hex-2-enoic acid ethyl ester] |  |  | > 100 µM | 6 M⁻¹ s⁻¹ | > 100000 nM | 
CCOC(=O)/C=C/[C@H](C[C@@H]1CCNC1=O)NC(=O)/C=C/c1ccc(C)c(Br)c1 [Compound 23, 4S-[3-(3-bromo-4-methyl-phenyl)-acryloylamino]-5-(2-oxo-pyrrolidin-3S-yl)-pent-2-enoic acid ethyl ester] | 4080 M⁻¹ s⁻¹ | 1290 nM | > 10 µM |  |  | 
CCOC(=O)/C=C/[C@H](CCC(N)=O)NC(=O)/C=C/c1cccc(Br)c1 [Compound 30, 4S-[3-(3-bromophenyl)-acryloylamino]-6-carbamoyl-hex-2-enoic acid ethyl ester] |  |  | > 100 µM | 345 M⁻¹ s⁻¹ | 3200 nM | 
CCOC(=O)/C=C/[C@H](CCC(N)=O)NC(=O)/C=C/c1ccccc1 [Compound 29, 6-carbamoyl-4S-(3-phenyl-acryloylamino)-hex-2-enoic acid ethyl ester] |  |  | > 100 µM | 62 M⁻¹ s⁻¹ | 31600 nM | 
CCOC(=O)/C=C/[C@H](C[C@@H]1CCNC1=O)NC(=O)/C=C/c1cccc(Br)c1 [Compound 3, 4S-[3-(3-bromo-phenyl)-acryloylamino]-5-(2-oxo-pyrrolidin-3S-yl)-pent-2-enoic acid ethyl ester] | 2560 M⁻¹ s⁻¹ | 1400 nM | > 10 µM |  |  | 
CCOC(=O)/C=C/[C@H](CCC(N)=O)NC(=O)c1ccc2ccccc2c1 [Compound 25, 6-carbamoyl-4S-[(naphthalene-2-carbonyl)-amino]-hex-2-enoic acid ethyl ester] |  |  | > 100 µM | 150 M⁻¹ s⁻¹ | 600 nM | EC50 (HRV-1A): 22 µM; EC50 (HRV-10): 35000 nM
CCOC(=O)/C=C/[C@H](C[C@@H]1CCNC1=O)NC(=O)c1cc2cc(C)ccc2[nH]1 [Compound 43, 4-[(5-Methyl-1H-indole-2-carbonyl)-amino]-5-(2-oxo-pyrrolidin-3-yl)-pent-2-enoic acid ethyl ester] | 3460 M⁻¹ s⁻¹ | 2140 nM | > 100 µM |  |  | 
Cc1cc(CCCCCCCOc2ccc(C3=N[C@@H](C)CO3)cc2)on1 [WIN 52084, reference compound] |  |  |  |  |  | EC50 (HRV-14; [7]): 70 nM; CC50 (H1-HeLa cells): > 10 µM
